Measurements reported in US20230021946A1, “MONOMERIC FUSION PEPTIDES AND METHOD OF USE THEREOF” (priority 2021, published 2023).
Read-outs that look alike come from different tables or passages of the source. [ ]: non-standard residue; d: D form. Nva = CCC[C@H](N)C(=O)O

How the values were obtained:
[1] = Oral glucose tolerance test after single intravenous injection in mice; assay type: in vivo; details: mice fasted 4 hours, intravenous injection 10 minutes before oral glucose load 1 g/kg
Protocol: The oral glucose load was 1 g glucose/kg body weight. Blood glucose levels were measured with a glucometer at time −30 minutes, 0 (right before the oral glucose load), 15, 30, 60 and 90 minutes after the oral glucose load. Mice were euthanized after the time 90 minutes.

[2] = Stability in human plasma at 37° C.; assay type: in vitro ADME; details: for % of Time 0 / remaining at 1 h, 1000 ng/ml / remaining at 8 h, 1000 ng/ml / remaining at 22 h, 1000 ng/ml: 1000 ng/ml; for % of Time 0: 0.00 hrs, N=3; for remaining at 1 h, 1000 ng/ml / remaining at 8 h, 1000 ng/ml / remaining at 22 h, 1000 ng/ml: N=3, read-out: % of Time 0; for resistance to proteolytic degradation compared with GLP1 peptide: 8 and 22 hours of incubation
Protocol: The stability and resistance to proteolytic degradation of a number of ALY688-GLP1v fusion peptides were assessed following incubation in human plasma at 37° C.
HPLC (Supelco Discovery BIO Wide Pore C5-3 (2.1×50 mm) with a slow gradient to separate possible degradation products) was used to quantify each peptide. High resolution mass spectrometry (Thermo Q Exactive) Plus was used to collect full scan and MS2 spectra to characterize any possible degradants. The data were evaluated both manually and using Proteome Discoverer data mining software.
In the above tables, Temperature=37° C., Concentration=1000 ng/ml, and N=3/time point.

[3] = Pharmacokinetic profile in mice after single subcutaneous injection; assay type: in vivo; details: 10 mg/kg; for AUC(0-t) / Cmax / Tmax: mouse, sc, plasma
Protocol: GLP1v peptide (with Gly8 substitution) and GLP1v fusion peptides were administered once by subcutaneous injection (concentration=10 mg/kg). Blood was collected into K2EDTA tubes containing a cocktails of protease inhibitors (DPP-4 and Aprotinin). The Bioanalytical Method BAM.0634.01 was used for the quantitation of GLP1v and GLP1v fusion peptides in K2EDTA mouse plasma. It is based on protein precipitation extraction followed by LC-MS/MS instrumental analysis and covers a measurement range from 1.00 to 1000 ng/mL. Samples were analyzed on a Waters Acquity liquid chromatograph interfaced with a Thermo Scientific TSQ Vantage triple quadrupole mass spectrometer with ESI ionization.

[4] = test system: P38MAPK (T180/Y182) phosphorylation; details: L6 murine skeletal muscle cells, ALY688 alone, previously shown; cited from earlier work

Row | Compound | blood glucose levels after glucose load [1] | % of Time 0 [2] | remaining at 1 h, 1000 ng/ml [2] | remaining at 8 h, 1000 ng/ml [2] | remaining at 22 h, 1000 ng/ml [2] | resistance to proteolytic degradation compared with GLP1 peptide [2] | change in AUC / total exposure compared with GLP1v peptide [3] | AUC(0-t) [3] | Cmax [3] | Tmax [3] | change in Tmax compared with GLP1v peptide [3] | remaining at 1 h, 1000 ng/ml ([2]; human plasma (K2EDTA)) | remaining at 8 h, 1000 ng/ml ([2]; human plasma (K2EDTA)) | remaining at 22 h, 1000 ng/ml ([2]; human plasma (K2EDTA)) | P38MAPK (T180/Y182) phosphorylation [4]
1 | CCC[C@H](NC(=O)[C@@H]1CCCN1C(=O)[C@@H](NC(=O)[C@H](N)CC(N)=O)[C@@H](C)CC)C(=O)N[C@@H](CC(C)C)C(=O)N[C@@H](Cc1ccc(O)cc1)C(=O)N[C@H](CO)C(=O)N[C@@H](Cc1ccccc1)C(=O)N[C@@H](C)C(=O)N[C@H](CO)C(=O)NCC(=O)NCC(=O)NCC(=O)NCCCC[C@H](NC(=O)[C@H](C)NC(=O)[C@H](C)NC(=O)[C@H](CCC(N)=O)NC(=O)CNC(=O)[C@H](CCC(=O)O)NC(=O)[C@H](CC(C)C)NC(=O)[C@H](Cc1ccc(O)cc1)NC(=O)[C@H](CO)NC(=O)[C@H](CO)NC(=O)[C@@H](NC(=O)[C@H](CC(=O)O)NC(=O)[C@H](CO)NC(=O)[C@@H](NC(=O)[C@H](Cc1ccccc1)NC(=O)[C@@H](NC(=O)CNC(=O)[C@H](CCC(=O)O)NC(=O)CNC(=O)[C@@H](N)Cc1c[nH]cn1)[C@@H](C)O)[C@@H](C)O)C(C)C)C(=O)N[C@@H](CCC(=O)O)C(=O)N[C@@H](Cc1ccccc1)C(=O)N[C@H](C(=O)N[C@@H](C)C(=O)N[C@@H](Cc1c[nH]c2ccccc12)C(=O)N[C@@H](CC(C)C)C(=O)N[C@H](C(=O)N[C@@H](CCCCN)C(=O)NCC(=O)N[C@@H](CCCNC(=N)N)C(N)=O)C(C)C)[C@@H](C)CC [ALY688-GLP1v(Lys26)] | greater glucose lowering action | 100% | 99% | 74% | 40% | better resistance to proteolytic degradation | two-fold increase | 1020 ng·h/mL | 1610 ng/mL | 10 min |  |  |  |  | 
2 | CCC[C@H](NC(=O)[C@@H]1CCCN1C(=O)[C@@H](NC(=O)[C@H](N)CC(N)=O)[C@@H](C)CC)C(=O)N[C@@H](CC(C)C)C(=O)N[C@@H](Cc1ccc(O)cc1)C(=O)N[C@H](CO)C(=O)N[C@@H](Cc1ccccc1)C(=O)N[C@@H](C)C(=O)N[C@H](CO)C(=O)NCC(=O)NCC(=O)NCC(=O)NCCCC[C@H](NC(=O)[C@H](C)NC(=O)[C@H](C)NC(=O)[C@H](CCC(N)=O)NC(=O)CNC(=O)[C@H](CCC(=O)O)NC(=O)[C@H](CC(C)C)NC(=O)[C@H](Cc1ccc(O)cc1)NC(=O)[C@H](CO)NC(=O)[C@H](CO)NC(=O)[C@@H](NC(=O)[C@H](CC(=O)O)NC(=O)[C@H](CO)NC(=O)[C@@H](NC(=O)[C@H](Cc1ccccc1)NC(=O)[C@@H](NC(=O)CNC(=O)[C@H](CCC(=O)O)NC(=O)CNC(=O)[C@@H](N)Cc1c[nH]cn1)[C@@H](C)O)[C@@H](C)O)C(C)C)C(=O)N[C@@H](CCC(=O)O)C(=O)N[C@@H](Cc1ccccc1)C(=O)N[C@H](C(=O)N[C@@H](C)C(=O)N[C@@H](Cc1c[nH]c2ccccc12)C(=O)N[C@@H](CC(C)C)C(=O)N[C@H](C(=O)N[C@@H](CCCCNC(=O)CNC(=O)CNC(=O)CNC(=O)[C@@H](CO)NC(=O)[C@H](C)NC(=O)[C@H](Cc1ccccc1)NC(=O)[C@@H](CO)NC(=O)[C@H](Cc1ccc(O)cc1)NC(=O)[C@H](CC(C)C)NC(=O)[C@H](CCC)NC(=O)[C@@H]1CCCN1C(=O)[C@@H](NC(=O)[C@H](N)CC(N)=O)[C@@H](C)CC)C(=O)NCC(=O)N[C@@H](CCCNC(=N)N)C(N)=O)C(C)C)[C@@H](C)CC [ALY688-GLP1v(Lys26,34)] |  |  |  |  |  |  | decrease in total exposure | 358 ng·h/mL | 372 ng/mL | 15 min | further increase in the Tmax |  |  |  | 
3 | CC[C@H](C)[C@H](NC(=O)[C@H](Cc1ccccc1)NC(=O)[C@H](CCC(=O)O)NC(=O)[C@H](CCCCN)NC(=O)[C@H](C)NC(=O)[C@H](C)NC(=O)[C@H](CCC(N)=O)NC(=O)CNC(=O)[C@H](CCC(=O)O)NC(=O)[C@H](CC(C)C)NC(=O)[C@H](Cc1ccc(O)cc1)NC(=O)[C@H](CO)NC(=O)[C@H](CO)NC(=O)[C@@H](NC(=O)[C@H](CC(=O)O)NC(=O)[C@H](CO)NC(=O)[C@@H](NC(=O)[C@H](Cc1ccccc1)NC(=O)[C@@H](NC(=O)CNC(=O)[C@H](CCC(=O)O)NC(=O)CNC(=O)[C@@H](N)Cc1cnc[nH]1)[C@@H](C)O)[C@@H](C)O)C(C)C)C(=O)N[C@@H](C)C(=O)N[C@@H](Cc1c[nH]c2ccccc12)C(=O)N[C@@H](CC(C)C)C(=O)N[C@H](C(=O)N[C@@H](CCCCN)C(=O)NCC(=O)N[C@@H](CCCNC(=N)N)C(N)=O)C(C)C [GLP1v with Gly8 substitution, reference compound] | expected glucose-lowering activity | 100% |  |  |  |  |  | 525 ng·h/mL | 781 ng/mL | 5 min |  | 85% | 41% | 24% | 
4 | CCC[C@H](NC(=O)[C@@H]1CCCN1C(=O)[C@@H](NC(=O)[C@H](N)CC(N)=O)[C@@H](C)CC)C(=O)N[C@@H](CC(C)C)C(=O)N[C@@H](Cc1ccc(O)cc1)C(=O)N[C@H](CO)C(=O)N[C@@H](Cc1ccccc1)C(=O)N[C@@H](C)C(=O)N[C@H](CO)C(=O)NCC(=O)NCC(=O)NCC(=O)NCCCC[C@H](NC(=O)[C@@H](NC(=O)[C@H](CC(C)C)NC(=O)[C@H](Cc1c[nH]c2ccccc12)NC(=O)[C@H](C)NC(=O)[C@@H](NC(=O)[C@H](Cc1ccccc1)NC(=O)[C@H](CCC(=O)O)NC(=O)[C@H](CCCCN)NC(=O)[C@H](C)NC(=O)[C@H](C)NC(=O)[C@H](CCC(N)=O)NC(=O)CNC(=O)[C@H](CCC(=O)O)NC(=O)[C@H](CC(C)C)NC(=O)[C@H](Cc1ccc(O)cc1)NC(=O)[C@H](CO)NC(=O)[C@H](CO)NC(=O)[C@@H](NC(=O)[C@H](CC(=O)O)NC(=O)[C@H](CO)NC(=O)[C@@H](NC(=O)[C@H](Cc1ccccc1)NC(=O)[C@@H](NC(=O)CNC(=O)[C@H](CCC(=O)O)NC(=O)CNC(=O)[C@@H](N)Cc1c[nH]cn1)[C@@H](C)O)[C@@H](C)O)C(C)C)[C@@H](C)CC)C(C)C)C(=O)NCC(=O)N[C@@H](CCCNC(=N)N)C(N)=O [ALY688-GLP1v(Lys34)] | greater glucose lowering action | 100% | 95% | 74% | 49% | better resistance to proteolytic degradation | decrease in total exposure | 177 ng·h/mL | 267 ng/mL | 15 min | further increase in the Tmax |  |  |  | 
5 | H-DAsn-Ile-Pro-Nva-Leu-Tyr-DSer-Phe-Ala-DSer-NH2 (H-[dN]IP[Nva]LY[dS]FA[dS]-NH2; SMILES CCC[C@H](NC(=O)[C@@H]1CCCN1C(=O)[C@@H](NC(=O)[C@H](N)CC(N)=O)[C@@H](C)CC)C(=O)N[C@@H](CC(C)C)C(=O)N[C@@H](Cc1ccc(O)cc1)C(=O)N[C@H](CO)C(=O)N[C@@H](Cc1ccccc1)C(=O)N[C@@H](C)C(=O)N[C@H](CO)C(N)=O) [ALY688, 10 amino acid chemically synthesized adiponectin receptor agonist peptide, reference compound] | no glucose effect |  |  |  |  |  |  |  |  |  |  |  |  |  | increased
